Source: patent US10441562B2, “Aromatic farnesyl compound and application thereof” (INSTITUTE OF MICROBIOLOGY, CHINESE ACADEMY OF SCIENCES, priority 2015, dated 2019)

Columns and labels:
[1] = molecular target: aldose reductase (Homo sapiens, UniProt P15121); experiment: aldose reductase inhibitory activity test in vitro; format: biochemical
Procedure, shortened: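 Absorbance assay with 0.1 mM NADPH solution and enzyme preincubated with compound 10 min at room temperature, then 10 mM D,L-glyceraldehyde solution added as substrate. Incubation 30 min at 37 °C in PBS. Read-out is optical density at 340 nm, corrected with blank (no compound) and background (no substrate) wells.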

[2] = molecular target: T1, dipeptidyl peptidase-4 (Homo sapiens, UniProt P27487); experiment: dipeptidyl peptidase-4 inhibitory activity test in vitro (DPP-4 inhibitor screening kit); format: biochemical
T1 construct: purchased
T1 sequence (P27487 whole entry, species assumed): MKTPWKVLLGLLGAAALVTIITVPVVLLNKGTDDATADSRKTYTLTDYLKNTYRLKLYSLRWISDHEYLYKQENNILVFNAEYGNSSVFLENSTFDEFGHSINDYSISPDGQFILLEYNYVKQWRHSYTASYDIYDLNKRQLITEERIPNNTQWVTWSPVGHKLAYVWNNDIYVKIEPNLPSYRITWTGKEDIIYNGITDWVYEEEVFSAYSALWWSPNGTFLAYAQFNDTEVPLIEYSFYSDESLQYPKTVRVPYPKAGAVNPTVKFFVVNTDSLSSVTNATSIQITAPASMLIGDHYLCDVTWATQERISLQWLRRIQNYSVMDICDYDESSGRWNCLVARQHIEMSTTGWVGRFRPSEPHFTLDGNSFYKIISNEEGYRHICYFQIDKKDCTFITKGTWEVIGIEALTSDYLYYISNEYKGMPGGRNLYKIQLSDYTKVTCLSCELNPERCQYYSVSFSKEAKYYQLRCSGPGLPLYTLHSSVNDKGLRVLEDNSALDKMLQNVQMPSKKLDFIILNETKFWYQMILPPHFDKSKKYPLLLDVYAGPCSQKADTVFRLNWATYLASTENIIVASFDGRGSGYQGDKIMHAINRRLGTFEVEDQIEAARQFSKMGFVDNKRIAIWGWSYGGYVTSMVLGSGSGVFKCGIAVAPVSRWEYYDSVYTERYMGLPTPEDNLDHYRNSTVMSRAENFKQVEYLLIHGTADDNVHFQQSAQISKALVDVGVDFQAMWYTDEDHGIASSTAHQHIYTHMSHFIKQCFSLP
From the text: The above compounds are detected by DPP-4 inhibitor screening kit.

## CC(C)=CCC/C(C)=C/CCC1=C[C@@H](c2cc(O)ccc2O)OC1=O [S28, (S,E)-5-(2,5-dihydroxyphenyl)-3-(4,8-dimethylnona-3,7-dien-1-yl)furan-2(5H)-one]
[1]
  IC50: 1.6 µM
[2]
  IC50: 6.8 µM

## CC(C)=CCC/C(C)=C/CCC1=C[C@H](c2cc(O)ccc2O)OC1=O [S13, (R,E)-5-(2,5-dihydroxyphenyl)-3-(4,8-dimethylnona-3,7-dien-1-yl)furan-2(5H)-one]
[1]
  IC50: 1.8 µM
[2]
  IC50: 4.5 µM
